One may read the IC50 as the concentration at which inhibition is half-maximal.

The experiment has as its target T1, HMG-CoA reductase (Rattus norvegicus, UniProt P51639).
T1 sequence (P51639 1-887): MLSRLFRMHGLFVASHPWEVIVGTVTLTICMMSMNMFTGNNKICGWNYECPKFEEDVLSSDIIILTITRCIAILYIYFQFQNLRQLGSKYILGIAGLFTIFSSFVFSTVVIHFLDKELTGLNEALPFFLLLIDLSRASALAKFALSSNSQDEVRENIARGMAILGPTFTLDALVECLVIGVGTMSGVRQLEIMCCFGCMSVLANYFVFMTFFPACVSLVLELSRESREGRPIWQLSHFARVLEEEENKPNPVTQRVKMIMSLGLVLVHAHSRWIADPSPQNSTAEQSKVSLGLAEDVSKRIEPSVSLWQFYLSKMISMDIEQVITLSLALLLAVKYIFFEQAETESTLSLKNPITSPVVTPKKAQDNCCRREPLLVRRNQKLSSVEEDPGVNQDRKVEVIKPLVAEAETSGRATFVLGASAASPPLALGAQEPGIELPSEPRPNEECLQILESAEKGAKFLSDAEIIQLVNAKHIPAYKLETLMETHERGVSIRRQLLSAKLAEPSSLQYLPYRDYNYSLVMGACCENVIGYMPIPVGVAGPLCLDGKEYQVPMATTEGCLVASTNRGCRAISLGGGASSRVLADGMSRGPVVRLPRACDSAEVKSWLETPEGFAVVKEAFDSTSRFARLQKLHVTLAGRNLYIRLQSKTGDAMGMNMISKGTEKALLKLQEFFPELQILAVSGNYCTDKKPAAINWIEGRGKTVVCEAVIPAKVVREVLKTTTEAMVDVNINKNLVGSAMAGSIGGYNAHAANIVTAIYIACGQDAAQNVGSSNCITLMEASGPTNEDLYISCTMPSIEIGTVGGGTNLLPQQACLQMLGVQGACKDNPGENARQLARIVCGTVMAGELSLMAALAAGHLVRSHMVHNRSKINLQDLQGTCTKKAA
Briefly: HMG-CoA reductase inhibitory activity (rat liver microsome). It counts as biochemical, rat (Sprague-Dawley). To be noted: [3-14C]HMG-CoA, 37° C., 30 minutes. (In general: Liver microsomes are vesicles of endoplasmic reticulum, rich in cytochrome P450 enzymes.)
For the molecule `CC(C)c1oc2cccc(-c3ccc(F)cc3)c2c1/C=C/[C@@H](O)C[C@@H](O)CC(=O)O`, the IC50 came to 0.74 µM. With `Cc1ccc(C(C)C)c2c(/C=C/[C@@H](O)C[C@@H](O)CC(=O)O)c(-c3ccc(F)cc3)oc12` (relative stereo), the IC50 came out at 0.27 µM. `Cc1cc(-c2ccc3occ(C(C)C)c3c2/C=C/[C@@H](O)C[C@@H](O)CC(=O)O)ccc1F` (relative stereo): the half-maximal inhibitory concentration (IC50) amounted to 0.032 µM.

For `Cn1nnnc1C(/C=C/[C@@H](O)C[C@@H](O)CC(=O)O)=C(\c1ccc(F)cc1)c1cc2ccccc2o1` (relative stereo), the midpoint of inhibition, the IC50, lay at 0.09 µM.

With `Cn1nnnc1C(/C=C/[C@@H](O)C[C@@H](O)CC(=O)O)=C(/c1ccc(F)cc1)c1cc2ccccc2o1` (relative stereo), the IC50 was determined as 0.09 µM. As for `CC(C)c1cccc2c(-c3ccc(F)cc3)c(/C=C/[C@@H](O)C[C@@H](O)CC(=O)O)oc12` (relative stereo) [Ia-2, Sodium (3R*,5S*)-(E)-7-[3-(4-fluorophenyl)-7-isopropylbenzofuran-2-yl]-3,5-dihydroxy-6-heptenate], the figure is 0.9 µM.

Turning to `CC(C)c1c(/C=C/[C@@H](O)C[C@@H](O)CC(=O)O)oc2c(-c3ccc(F)cc3)cccc12` (relative stereo) [Ia-5, Sodium (3R*,5S*)-(E)-7-[3-isopropyl-7-(4-fluorophenylbenzofuran-2-yl]-3,5-dihydroxy-6-heptenate], the IC50 was 0.11 µM. Take `Cc1cc(-c2c(CC[C@@H](O)C[C@@H](O)CC(=O)O)oc3c(C(C)C)cccc23)ccc1F` (relative stereo) [Ia-11]: half-maximal inhibition (IC50) required 0.22 µM. As for `CC(=O)N(C)c1ccc(-c2ccc(F)cc2)c2c(/C=C/[C@@H](O)C[C@@H](O)CC(=O)O)c(C(C)C)oc12` (relative stereo) [Ia-14, Sodium (3R*,5S*)-(E)-7-[7-(N-acetyl-N-methylamino)-4-(4-fluorophenyl)-2-isopropyl-3-yl]-3,5-dihydroxy-6-heptenate], the figure is 0.02 µM; as for `CNc1ccc(-c2ccc(F)cc2)c2c(/C=C/[C@@H](O)C[C@@H](O)CC(=O)O)c(C(C)C)oc12` (relative stereo) [Ia-15, Sodium (3R*,5S*)-(E)-7-[4-(4-fluorophenyl)-2-isopropyl-7-methylamino-3-yl]-3,5-dihydroxy-6-heptenate], 0.063 µM.

These data come from patent publication US5110825A, “Benzofuran derivative” (Shionogi & Co., Ltd., priority 1989, dated 1992).
